From ChEMBL document CHEMBL3046356, “Synthesis and anticholinesterase activity of fumaramide derivatives” (Med Chem Res, 2013)
Active and inactive are the calls of the source. No cut-off for these calls is given here.

How the values were obtained:
[1] = target: Acetylcholinesterase (Electrophorus electricus) (UniProt O42275); assay: Inhibition of Electrophorus electricus (electric eel) AChE using acetylthiocholine iodide as substrate at 10 mg/ml by TLC-B assay
Cholinesterase = Cholinesterase (Equus caballus, UniProt P81908); assay: Inhibition of BCHE in Equus caballus (horse) serum using butyrylthiocholine iodide as substrate preincubated with enzyme for 15 min prior to substrate addition measured every 45 s by colorimetric Ellman's method
Acetylcholinesterase = Acetylcholinesterase (Electrophorus electricus, UniProt O42275); assay: Inhibition of Electrophorus electricus (electric eel) AChE using acetylthiocholine iodide as substrate preincubated with enzyme for 15 min prior to substrate addition measured every 45 s by colorimetric Ellman's method
[2] = target: Acetylcholinesterase (Electrophorus electricus) (UniProt O42275); assay: Non-competitive inhibition of Electrophorus electricus (electric eel) AChE assessed as decrease in Vmax with unchanged Km using acetylthiocholine iodide as substrate by Lineweaver-burk plot analysis
[3] = target: Cholinesterase (Equus caballus) (UniProt P81908); assay: Non-competitive inhibition of BCHE in Equus caballus (horse) serum assessed as decrease in Vmax with unchanged Km using butyrylthiocholine iodide as substrate by Lineweaver-burk plot analysis
Sequence of Cholinesterase (Equus caballus) (P81908 whole entry): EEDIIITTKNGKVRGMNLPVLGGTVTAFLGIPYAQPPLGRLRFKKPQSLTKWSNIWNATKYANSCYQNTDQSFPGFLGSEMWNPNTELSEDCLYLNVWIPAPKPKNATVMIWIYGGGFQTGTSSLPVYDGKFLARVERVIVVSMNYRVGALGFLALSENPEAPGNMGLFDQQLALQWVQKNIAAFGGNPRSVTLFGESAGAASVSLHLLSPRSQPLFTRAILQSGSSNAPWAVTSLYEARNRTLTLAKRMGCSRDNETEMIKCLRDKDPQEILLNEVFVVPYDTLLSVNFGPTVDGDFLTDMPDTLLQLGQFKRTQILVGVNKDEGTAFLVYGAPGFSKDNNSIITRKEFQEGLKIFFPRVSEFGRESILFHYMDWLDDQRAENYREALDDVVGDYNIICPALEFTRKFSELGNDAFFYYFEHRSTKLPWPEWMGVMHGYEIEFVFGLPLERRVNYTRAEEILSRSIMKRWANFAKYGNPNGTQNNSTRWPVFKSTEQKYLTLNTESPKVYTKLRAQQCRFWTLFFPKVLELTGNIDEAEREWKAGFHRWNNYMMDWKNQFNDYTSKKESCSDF

Sequence of Cholinesterase (P81908 whole entry): as above
Sequence of Acetylcholinesterase (Electrophorus electricus) (O42275 24-633 limits assumed): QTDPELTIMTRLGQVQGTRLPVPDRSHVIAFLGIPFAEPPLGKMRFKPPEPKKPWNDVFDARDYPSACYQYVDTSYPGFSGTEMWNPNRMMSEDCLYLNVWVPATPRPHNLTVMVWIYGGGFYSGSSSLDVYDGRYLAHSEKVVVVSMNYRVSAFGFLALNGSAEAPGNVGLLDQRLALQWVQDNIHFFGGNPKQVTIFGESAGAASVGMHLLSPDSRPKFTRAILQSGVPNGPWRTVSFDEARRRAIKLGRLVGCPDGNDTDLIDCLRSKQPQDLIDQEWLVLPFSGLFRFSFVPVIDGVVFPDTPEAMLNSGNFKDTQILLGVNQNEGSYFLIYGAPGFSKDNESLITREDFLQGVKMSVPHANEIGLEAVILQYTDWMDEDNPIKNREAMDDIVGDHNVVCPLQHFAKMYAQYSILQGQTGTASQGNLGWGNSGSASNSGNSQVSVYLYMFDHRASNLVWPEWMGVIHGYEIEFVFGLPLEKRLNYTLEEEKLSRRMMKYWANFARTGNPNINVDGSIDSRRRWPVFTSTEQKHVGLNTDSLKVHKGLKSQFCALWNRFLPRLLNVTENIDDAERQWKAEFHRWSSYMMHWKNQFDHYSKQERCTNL
Sequence of Acetylcholinesterase (O42275 whole entry): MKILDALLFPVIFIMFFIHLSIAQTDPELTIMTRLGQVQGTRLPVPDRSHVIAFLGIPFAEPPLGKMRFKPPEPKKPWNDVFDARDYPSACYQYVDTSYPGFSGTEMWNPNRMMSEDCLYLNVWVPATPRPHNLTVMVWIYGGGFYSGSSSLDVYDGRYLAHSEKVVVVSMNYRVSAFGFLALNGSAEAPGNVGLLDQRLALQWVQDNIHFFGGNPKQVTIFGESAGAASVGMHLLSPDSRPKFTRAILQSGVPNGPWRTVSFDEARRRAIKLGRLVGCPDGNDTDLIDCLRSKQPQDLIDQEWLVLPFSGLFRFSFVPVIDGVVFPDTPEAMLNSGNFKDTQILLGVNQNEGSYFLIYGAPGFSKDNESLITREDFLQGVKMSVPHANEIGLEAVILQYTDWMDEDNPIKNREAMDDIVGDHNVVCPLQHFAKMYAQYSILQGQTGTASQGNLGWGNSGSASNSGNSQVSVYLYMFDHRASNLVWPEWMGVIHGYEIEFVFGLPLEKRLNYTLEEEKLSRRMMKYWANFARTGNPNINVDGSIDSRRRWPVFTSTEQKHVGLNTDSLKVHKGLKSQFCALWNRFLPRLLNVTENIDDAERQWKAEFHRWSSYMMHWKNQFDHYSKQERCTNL

Compound | inhibition [1] | IC50 (Cholinesterase) | IC50 (Acetylcholinesterase) | inhibition [2] | inhibition [3]
O=C(/C=C/C(=O)N(Cc1ccccc1)c1ccccc1)N(Cc1ccccc1)c1ccccc1 | Active | 52.4 µM | 11.8 µM |  | 
CCc1ccc(NCc2ccc(C)cc2)cc1 | Active | > 100 µM | > 100 µM |  | 
COc1ccc(NCc2ccc(C)cc2)cc1 | Active | > 100 µM | 1.33 µM |  | 
CCOc1ccc(NCc2ccccc2)cc1 | Active | > 100 µM | > 100 µM |  | 
CCOc1ccc(NCc2ccc(C)cc2)cc1 | Active | 4.07 µM | > 100 µM |  | 
c1ccc(CNc2ccccc2)cc1 [N-BENZYLANILINE] | Active | > 100 µM | 13 µM |  | 
Cc1ccc(CN(C(=O)/C=C/C(=O)N(Cc2ccc(C)cc2)c2ccc(Cl)cc2)c2ccc(Cl)cc2)cc1 | Active | 45.6 µM | 2.42 µM |  | 
COc1ccc(N(Cc2ccccc2)C(=O)/C=C/C(=O)N(Cc2ccccc2)c2ccc(OC)cc2)cc1 | Active | 43.6 µM | 13.9 µM |  | 
CCOc1ccc(N(Cc2ccc(C)cc2)C(=O)/C=C/C(=O)N(Cc2ccc(C)cc2)c2ccc(OCC)cc2)cc1 | Active | > 100 µM | 2.23 µM |  | 
O=C(/C=C/C(=O)N(Cc1ccccc1)c1ccc(Cl)cc1)N(Cc1ccccc1)c1ccc(Cl)cc1 | Active | 57.7 µM | 2.53 µM |  | 
Cc1ccc(NCc2ccccc2)cc1 [N-BENZYL-4-METHYLANILINE] | Active | > 100 µM | > 100 µM |  | 
CCc1ccc(NCc2ccccc2)cc1 | Active | > 100 µM | > 100 µM |  | 
COc1ccc(N(Cc2ccc(C)cc2)C(=O)/C=C/C(=O)N(Cc2ccc(C)cc2)c2ccc(OC)cc2)cc1 | Active | 41 µM | 11.2 µM |  | 
Cc1ccc(CNc2ccc(C)cc2)cc1 | Active | > 100 µM | > 100 µM |  | 
O=C(/C=C/C(=O)N(Cc1ccccc1)c1ccc(I)cc1)N(Cc1ccccc1)c1ccc(I)cc1 | Active | 23.3 µM | 0.97 µM |  | 
Cc1ccc(N(Cc2ccccc2)C(=O)/C=C/C(=O)N(Cc2ccccc2)c2ccc(C)cc2)cc1 | Active | 26.3 µM | 12.5 µM |  | 
CCc1ccc(N(Cc2ccc(C)cc2)C(=O)/C=C/C(=O)N(Cc2ccc(C)cc2)c2ccc(CC)cc2)cc1 | Active | 44.7 µM | 29.4 µM |  | 

Compound | inhibition [1] | IC50 (Cholinesterase) | IC50 (Acetylcholinesterase) | inhibition [2] | inhibition [3]
Cc1ccc(CNc2ccc(Cl)cc2)cc1 | Active | > 100 µM | > 100 µM |  | 
Ic1ccc(NCc2ccccc2)cc1 | Active | > 100 µM | > 100 µM |  | 
Cc1ccc(CN(C(=O)/C=C/C(=O)N(Cc2ccc(C)cc2)c2ccc(F)cc2)c2ccc(F)cc2)cc1 | Active | 56.6 µM | 23.9 µM |  | 
CCc1ccc(N(Cc2ccccc2)C(=O)/C=C/C(=O)N(Cc2ccccc2)c2ccc(CC)cc2)cc1 | Active | 49.3 µM | 32.2 µM |  | 
Cc1ccc(CN(C(=O)/C=C/C(=O)N(Cc2ccc(C)cc2)c2ccc(I)cc2)c2ccc(I)cc2)cc1 | Active | 24.6 µM | 17.7 µM |  | 
Cc1ccc(CN(C(=O)/C=C/C(=O)N(Cc2ccc(C)cc2)c2ccc(Br)cc2)c2ccc(Br)cc2)cc1 | Active | 23.1 µM | 0.14 µM | Active | Active
O=C(/C=C/C(=O)N(Cc1ccccc1)c1ccc(Br)cc1)N(Cc1ccccc1)c1ccc(Br)cc1 | Active | 16.5 µM | 8.06 µM | Active | Active
Cc1ccc(CNc2ccc(I)cc2)cc1 | Active | > 100 µM | > 100 µM |  | 
Clc1ccc(NCc2ccccc2)cc1 | Active | > 100 µM | > 100 µM |  | 
Fc1ccc(NCc2ccccc2)cc1 | Active | > 100 µM | > 100 µM |  | 
Brc1ccc(NCc2ccccc2)cc1 | Active | > 100 µM | > 100 µM |  | 
Cc1ccc(CNc2ccc(F)cc2)cc1 | Active | > 100 µM | > 100 µM |  | 
CCOc1ccc(N(Cc2ccccc2)C(=O)/C=C/C(=O)N(Cc2ccccc2)c2ccc(OCC)cc2)cc1 | Active | 44 µM | 35.9 µM |  | 
Cc1ccc(CN(C(=O)/C=C/C(=O)N(Cc2ccc(C)cc2)c2ccc(C)cc2)c2ccc(C)cc2)cc1 | Active | 54.8 µM | 43.1 µM |  | 
Cc1ccc(CNc2ccc(Br)cc2)cc1 | Active | > 100 µM | > 100 µM |  | 
O=C(/C=C/C(=O)N(Cc1ccccc1)c1ccc(F)cc1)N(Cc1ccccc1)c1ccc(F)cc1 | Active | 89.5 µM | 4.5 µM |  | 
